Experimental data reported in the Kinase Knowledgebase extract (Sharma et al. 2016).

Target: MAPK14 (human) (UniProt Q16539)
Experiment: Inhibition of MAPK14 Kinase Activity

Chain of MAPK14 (human) (Q16539 whole entry, looked up): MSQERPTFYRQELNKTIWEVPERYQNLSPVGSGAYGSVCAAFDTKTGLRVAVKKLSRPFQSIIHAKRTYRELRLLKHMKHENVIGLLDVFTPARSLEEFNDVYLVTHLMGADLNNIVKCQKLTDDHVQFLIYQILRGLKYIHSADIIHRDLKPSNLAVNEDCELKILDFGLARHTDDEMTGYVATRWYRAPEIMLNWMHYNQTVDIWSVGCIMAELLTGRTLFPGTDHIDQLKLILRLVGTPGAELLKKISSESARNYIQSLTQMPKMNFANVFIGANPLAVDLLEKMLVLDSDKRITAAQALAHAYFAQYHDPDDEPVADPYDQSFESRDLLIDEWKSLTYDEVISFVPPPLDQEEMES

Question: How did the IC50 turn out when COc1ccccc1Nc1ccc2c(c1)[nH]c(=O)n2CC1CCCCC1 was run?
Answer: The IC50 was under 1000 nM.

Question: For CC(C)(CN)n1c(=O)[nH]c2cc(Nc3ccc(F)cc3)ccc21, which IC50 is on record?
Answer: The IC50 was under 1000 nM.

Question: For O=c1[nH]c2cc(Nc3ccccc3)ccc2n1C1CCCc2ccccc21 (configuration not stated), which IC50 is on record?
Answer: The IC50 was under 1000 nM.

Question: For CC(C1CCCCC1)n1c(=O)[nH]c2cc(Nc3ccccc3)ccc21 (configuration not stated), which IC50 is on record?
Answer: The IC50 was under 1000 nM.

Question: Which IC50 does the source give for O=c1[nH]c2cc(Nc3ccc(F)cc3F)ccc2n1C1CCNC1 (configuration not stated) here?
Answer: Its IC50 is under 1000 nM.

Question: Which IC50 does the source give for O=c1[nH]c2cc(Nc3ccccc3F)ccc2n1CC1CCCCC1 here?
Answer: The IC50 was under 1000 nM.

Question: For Cc1ccccc1Nc1cc2[nH]c(=O)n(CC3CCCCC3)c2cc1N(C)CCN(C)C, which IC50 is on record?
Answer: Its IC50 is under 1000 nM.

Question: How did the IC50 turn out when O=c1[nH]c2cc(Nc3ccccc3F)c(N3CCNCC3)cc2n1CC1CCCCC1 was run?
Answer: Its IC50 is under 1000 nM.

Question: CCS(=O)(=O)N1CCC(n2c(=O)[nH]c3cc(Nc4ccccc4F)ccc32)C1 (configuration not stated) was tested. Which IC50 did it give?
Answer: Its IC50 is under 1000 nM.

Question: For O=c1[nH]c2cc(Nc3ccccc3)ccc2n1C1CCCC1, which IC50 is on record?
Answer: The IC50 was under 1000 nM.

Question: CC(C)(CN)n1c(=O)[nH]c2cc(Nc3ccccc3)ccc21 was tested. Which IC50 did it give?
Answer: The IC50 was under 1000 nM.

Question: Which IC50 does the source give for CNCC(C)(C)n1c(=O)[nH]c2cc(Nc3ccccc3C)ccc21 here?
Answer: The IC50 was under 1000 nM.

Question: O=c1[nH]c2cc(Nc3ccccc3F)ccc2n1C1CCNC1 (configuration not stated) was tested. Which IC50 did it give?
Answer: The IC50 was under 1000 nM.

Question: For CC(c1ccccc1)n1c(=O)[nH]c2cc(Nc3ccccc3)ccc21 (configuration not stated), which IC50 is on record?
Answer: The IC50 was under 1000 nM.

Question: For Cc1ccccc1Nc1cc2[nH]c(=O)n(CC3CCCCC3)c2cc1N(C)CCCN(C)C, which IC50 is on record?
Answer: Its IC50 is under 1000 nM.

Question: CN1CCC(n2c(=O)[nH]c3cc(Nc4ccc(F)cc4F)ccc32)C1 (configuration not stated) was tested. Which IC50 did it give?
Answer: Its IC50 is under 1000 nM.

Question: CC(C)(C)n1c(=O)[nH]c2cc(Nc3ccccc3)ccc21 was tested. Which IC50 did it give?
Answer: The IC50 was under 1000 nM.

Question: How did the IC50 turn out when Cc1ccc(Nc2ccc3c(c2)[nH]c(=O)n3CC2CCCCC2)cc1N was run?
Answer: The IC50 was under 1000 nM.

Question: Which IC50 does the source give for CN1CCC(n2c(=O)[nH]c3cc(Nc4ccc(F)cc4)ccc32)C1 (configuration not stated) here?
Answer: The IC50 was under 1000 nM.

Question: Which IC50 does the source give for Cc1ccccc1Nc1cc2[nH]c(=O)n(CC3CCCCC3)c2cc1N1CCN(C)CC1 here?
Answer: Its IC50 is under 1000 nM.

Question: For CNCC(C)(C)n1c(=O)[nH]c2cc(Nc3ccc(F)cc3)ccc21, which IC50 is on record?
Answer: The IC50 was under 1000 nM.

Question: How did the IC50 turn out when O=c1[nH]c2cc(Nc3ccc(F)c(F)c3)ccc2n1CC1CCCCC1 was run?
Answer: The IC50 was under 1000 nM.

Question: O=c1[nH]c2cc(Nc3ccccc3)ccc2n1CCc1ccccc1 was tested. Which IC50 did it give?
Answer: The IC50 was under 1000 nM.

Question: How did the IC50 turn out when CCS(=O)(=O)N1CCC(n2c(=O)[nH]c3cc(Nc4ccc(F)cc4)ccc32)C1 (configuration not stated) was run?
Answer: Its IC50 is under 1000 nM.

Question: O=c1[nH]c2cc(Nc3cccc(F)c3)ccc2n1CC1CCCCC1 was tested. Which IC50 did it give?
Answer: The IC50 was under 1000 nM.

Question: CNCC(C)(C)n1c(=O)[nH]c2cc(Nc3ccccc3)ccc21 was tested. Which IC50 did it give?
Answer: Its IC50 is under 1000 nM.

Question: Which IC50 does the source give for CCS(=O)(=O)N1CCC(n2c(=O)[nH]c3cc(Nc4ccc(F)cc4F)ccc32)C1 (configuration not stated) here?
Answer: The IC50 was under 1000 nM.

Question: How did the IC50 turn out when CN(C)CC(C)(C)n1c(=O)[nH]c2cc(Nc3ccccc3F)ccc21 was run?
Answer: The IC50 was under 1000 nM.

Question: With O=c1[nH]c2cc(Nc3ccccc3)ccc2n1C1CCNC1 (configuration not stated) as the compound, how does the IC50 read?
Answer: Its IC50 is under 1000 nM.

Question: Which IC50 does the source give for CCS(=O)(=O)N1CCC(n2c(=O)[nH]c3cc(Nc4ccccc4)ccc32)C1 (configuration not stated) here?
Answer: The IC50 was under 1000 nM.

Question: With CC(C)(CN)n1c(=O)[nH]c2cc(Nc3ccccc3F)ccc21 as the compound, how does the IC50 read?
Answer: Its IC50 is under 1000 nM.

Question: How did the IC50 turn out when O=c1[nH]c2cc(Nc3ccccc3)ccc2n1CC1CCCCC1 was run?
Answer: Its IC50 is under 1000 nM.

Question: For CN1CCN(c2cc3c(cc2Nc2ccccc2)[nH]c(=O)n3CC2CCCCC2)CC1, which IC50 is on record?
Answer: The IC50 was under 1000 nM.

Question: For CS(=O)(=O)N1CCC(n2c(=O)[nH]c3cc(Nc4ccc(F)cc4)ccc32)C1 (configuration not stated), which IC50 is on record?
Answer: The IC50 was under 1000 nM.

Question: How did the IC50 turn out when O=c1[nH]c2cc(Nc3ccccc3)ccc2n1Cc1cccnc1 was run?
Answer: Its IC50 is under 1000 nM.

Question: For Cc1ccccc1Nc1ccc2c(c1)[nH]c(=O)n2C(C)(C)CN, which IC50 is on record?
Answer: Its IC50 is under 1000 nM.

Question: C=C/C(=C\C=C(/C)F)Nc1ccc2c(c1)[nH]c(=O)n2C(C)(C)CN(C)C was tested. Which IC50 did it give?
Answer: Its IC50 is under 1000 nM.

Question: O=c1[nH]c2cc(Nc3ccccc3)ccc2n1Cc1c(F)cccc1F was tested. Which IC50 did it give?
Answer: Its IC50 is under 1000 nM.

Question: How did the IC50 turn out when CS(=O)(=O)N1CCC(n2c(=O)[nH]c3cc(Nc4ccccc4F)ccc32)C1 (configuration not stated) was run?
Answer: Its IC50 is under 1000 nM.

Question: CN(C)CC(C)(C)n1c(=O)[nH]c2cc(Nc3ccc(F)cc3F)ccc21 was tested. Which IC50 did it give?
Answer: Its IC50 is under 1000 nM.

Question: With CN1CCN(c2cc3c(cc2Nc2ccccc2F)[nH]c(=O)n3C2CCCC2)CC1 as the compound, how does the IC50 read?
Answer: Its IC50 is under 1000 nM.

Question: Which IC50 does the source give for CS(=O)(=O)N1CCC(n2c(=O)[nH]c3cc(Nc4ccc(F)cc4F)ccc32)C1 (configuration not stated) here?
Answer: The IC50 was under 1000 nM.

Question: Which IC50 does the source give for O=c1[nH]c2cc(Nc3ccccc3)ccc2n1CC1CCCO1 (configuration not stated) here?
Answer: The IC50 was under 1000 nM.

Question: For CN1CCC(n2c(=O)[nH]c3cc(Nc4ccccc4)ccc32)C1 (configuration not stated), which IC50 is on record?
Answer: The IC50 was under 1000 nM.

Question: How did the IC50 turn out when CN1CCC(n2c(=O)[nH]c3cc(Nc4ccccc4F)ccc32)C1 (configuration not stated) was run?
Answer: Its IC50 is under 1000 nM.

Question: With CN(C)CC(C)(C)n1c(=O)[nH]c2cc(Nc3ccccc3)ccc21 as the compound, how does the IC50 read?
Answer: Its IC50 is under 1000 nM.

Question: With O=c1[nH]c2cc(Nc3ccccc3)ccc2n1C1CCc2ccccc21 (configuration not stated) as the compound, how does the IC50 read?
Answer: The IC50 was under 1000 nM.

Question: Which IC50 does the source give for CNCC(C)(C)n1c(=O)[nH]c2cc(Nc3ccccc3F)ccc21 here?
Answer: Its IC50 is under 1000 nM.

Question: How did the IC50 turn out when O=c1[nH]c2cc(Nc3ccc(F)cc3)ccc2n1CC1CCCCC1 was run?
Answer: The IC50 was under 1000 nM.

Question: O=c1[nH]c2cc(Nc3ccc(F)cc3)ccc2n1C1CCNC1 (configuration not stated) was tested. Which IC50 did it give?
Answer: The IC50 was under 1000 nM.

Question: Which IC50 does the source give for CCS(=O)(=O)N1CCC(n2c(=O)[nH]c3cc(Nc4ccccc4C)ccc32)C1 (configuration not stated) here?
Answer: Its IC50 is under 1000 nM.

Question: With Cc1ccccc1Nc1ccc2c(c1)[nH]c(=O)n2C(C)(C)CN(C)C as the compound, how does the IC50 read?
Answer: The IC50 was under 1000 nM.

Question: Cc1ccccc1Nc1ccc2c(c1)[nH]c(=O)n2CC1CCCCC1 was tested. Which IC50 did it give?
Answer: Its IC50 is under 1000 nM.

Question: Which IC50 does the source give for O=c1[nH]c2cc(Nc3ccc(F)cc3F)ccc2n1CC1CCCCC1 here?
Answer: The IC50 was under 1000 nM.

Question: With COc1cccc(Cn2c(=O)[nH]c3cc(Nc4ccccc4)ccc32)c1 as the compound, how does the IC50 read?
Answer: The IC50 was under 1000 nM.

Question: O=c1[nH]c2cc(Nc3ccccc3)ccc2n1Cc1ccccc1 was tested. Which IC50 did it give?
Answer: The IC50 was under 1000 nM.

Question: Cc1ccccc1Nc1ccc2c(c1)[nH]c(=O)n2C1CCNC1 (configuration not stated) was tested. Which IC50 did it give?
Answer: Its IC50 is under 1000 nM.

Question: Which IC50 does the source give for CC(C)(CN)n1c(=O)[nH]c2cc(Nc3ccc(F)cc3F)ccc21 here?
Answer: The IC50 was under 1000 nM.

Question: Which IC50 does the source give for Cc1ccccc1Nc1ccc2c(c1)[nH]c(=O)n2C1CCN(C)C1 (configuration not stated) here?
Answer: The IC50 was under 1000 nM.

Question: For Cc1ccccc1Nc1ccc2c(c1)[nH]c(=O)n2C1CCN(S(C)(=O)=O)C1 (configuration not stated), which IC50 is on record?
Answer: Its IC50 is under 1000 nM.

Question: O=c1[nH]c2cc(Nc3ccccc3)c(N3CCNCC3)cc2n1CC1CCCCC1 was tested. Which IC50 did it give?
Answer: The IC50 was under 1000 nM.

Question: O=c1[nH]c2cc(Nc3ccccc3)ccc2n1-c1ccccc1 was tested. Which IC50 did it give?
Answer: Its IC50 is under 1000 nM.
